Results published in US12102672B2, “Immunogenic sequences from a phage tail length tape measure protein, bacteria expressing the same and their use in treating a cancer” (INSTITUT GUSTAVE ROUSSY, priority 2017, dated 2024).

How the values were obtained:
ileal bacterial colonies = experiment: Culturomics and TMP PCR of ileal content after gavage with E. hirae 13144 and CTX; assay type: in vivo, C57BL/6 mice; settings: 76 colonies, oral gavage + systemic CTX
Description: . […] Also refer to FIG. 39.
PCR amplification of the TMP sequence (refer to FIG. 36) in each colony growing after seeding of ileal content in aerobic conditions to isolate Gram+ bacteria. A photograph of each agarose electrophoresis gel is shown for each animal. A depicts the results in 5 naive mice and B depicts the findings after CTX+oral gavage with the phage encoding bacterium. Each vertical lane corresponds to one bacterium identified in MALDI-TOF. Initials are detailed in the lower part of panel A. The positive control (Ctl+) represents the DNA of E. hirae 13144.
We cultivated the stools (of patients) or ileal material (mice) after several dilutions in aerobic conditions and permissive medium to allow isolation of enterococci colonies (according to a procedure described in (Samb-Ba et al., 2014)). We performed a PCR of the TMP sequence in each single cultivable Enterococcus colony. One colony was put in 100 μl of nuclease-free water to release the bacterial DNA and PCR was performed with 5 μl of DNA, 12.5 μl of PCR master mix (Thermoscientific), 5 μl of nuclease-free water and 1.25 μl of each TMP primers (20 µM). […] The sequence of primers are: forward 5′-[…]-3′ ID No: reverse 5′-(SEQ 191) and […]-3′ (SEQ ID No: 192) (amplicon 1026 bp). […]

[1] = tested on: MCA205 cells with PSMB4 GSFARFRNI knock-in; experiment: Growth of Psmb4 knock-in MCA205 tumors under CTX +/- E. hirae 13144; assay type: in vivo, mice; settings: L→F exchange in position 3, versus WT MCA205
[2] = tested on: IFNg producing CD8^+ T (Tc1) cells; settings: naïve mice; cited from earlier work

Substance | in vivo transduction of by-stander Enterococci by the phage (ileal bacterial colonies) | anticancer effect on PSMB4 knock-in (GSFARFRNI) MCA205 tumors [1] | immunogenic and oncomicrobiotic properties of the isolate [2]
Enterococcus hirae strain 13144 [Peptide 13144] | E. gallinarum was the only by-stander Enterococci transduced | drastically blunted the anticancer effects | 
Enterococcus hirae 708 [Peptide 708, reference compound] |  |  | induced IFNg producing CD8^+ T (Tc1) cells
